± gives the standard deviation of the averaged measurements.
Legend:
Assay in all cases: relative viability vs DMSO control (72 h) (fraction); higher = more viable cells
VA-ES-BJ = test system: VA-ES-BJ
Outline: (§1)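 Sarcoma cell lines went into 384-well plates at densities chosen to reach 80–90% confluence. After 24 h, each well received 2.5 µl of serially diluted compound, with source plates running from 10 mM to 0.0002 mM, and the plates were kept 72 h at 37 °C, 5% CO2, alongside 0.1% DMSO vehicle and a 5 µM positive control. Relative viability was derived from ATPLite readings as percent growth and averaged over up to triplicate wells. The data were then rescaled so that 1 stands for full and 0 for none.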

SK-LMS-1 = test system: SK-LMS-1
Outline: as §1

RD-ES = test system: RD-ES
Outline: as §1

SW982 = test system: SW982
Outline: as §1

SW872 = test system: SW872
Outline: as §1

HT1080 = test system: HT1080
Outline: as §1

KHOS-NP = test system: KHOS-NP
Outline: as §1

G401 = test system: G401
Outline: as §1

A204 = test system: A204
Outline: as §1

HS729 = test system: HS729
Outline: as §1

SW684 = test system: SW684
Outline: as §1

SK-ES-1 = test system: SK-ES-1
Outline: as §1

COc1cc2nccc(Oc3ccc(NC(=O)C4(C(=O)Nc5ccc(F)cc5)CC4)cc3)c2cc1OC [Cabozantinib]
Details	relative viability
A204, 0.00017 µM	1.04 ± 0.053
A204, 0.00051 µM	1.1 ± 0.073
A204, 0.00152 µM	1.06 ± 0.073
A204, 0.00457 µM	1.06 ± 0.04
A204, 0.01372 µM	0.9735 ± 0.0068
A204, 0.04115 µM	0.785 ± 0.064
A204, 0.1235 µM	0.428 ± 0.038
A204, 0.3704 µM	0.378 ± 0.023
A204, 1.111 µM	0.341 ± 0.037
A204, 3.333 µM	0.312 ± 0.028
A204, 10 µM	0.229 ± 0.0041
G401, 0.00017 µM	1.08 ± 0.032
G401, 0.00051 µM	1.05 ± 0.035
G401, 0.00152 µM	1.02 ± 0.041
G401, 0.00457 µM	1.06 ± 0.054
G401, 0.01372 µM	1.05 ± 0.034
G401, 0.04115 µM	0.997 ± 0.063
G401, 0.1235 µM	0.969 ± 0.019
G401, 0.3704 µM	0.858 ± 0.03
G401, 1.111 µM	0.804 ± 0.03
G401, 3.333 µM	0.514 ± 0.017
G401, 10 µM	0.215 ± 0.06
HS729, 0.00017 µM	1.1 ± 0.023
HS729, 0.00051 µM	0.966 ± 0.056
HS729, 0.00152 µM	0.973 ± 0.062
HS729, 0.00457 µM	0.928 ± 0.049
HS729, 0.01372 µM	0.9662 ± 0.0076
HS729, 0.04115 µM	0.897 ± 0.076
HS729, 0.1235 µM	0.83 ± 0.049
HS729, 0.3704 µM	0.749 ± 0.027
HS729, 1.111 µM	0.64 ± 0.03
HS729, 3.333 µM	0.504 ± 0.025
HS729, 10 µM	0.288 ± 0.037
HT1080, 0.00017 µM	1.06 ± 0.069
HT1080, 0.00051 µM	1.06 ± 0.03
HT1080, 0.00152 µM	1.07 ± 0.033
HT1080, 0.00457 µM	1.07 ± 0.019
HT1080, 0.01372 µM	1.05 ± 0.051
HT1080, 0.04115 µM	1.04 ± 0.024
HT1080, 0.1235 µM	1.06 ± 0.019
HT1080, 0.3704 µM	1.06 ± 0.032
HT1080, 1.111 µM	1.07 ± 0.016
HT1080, 3.333 µM	0.962 ± 0.014
HT1080, 10 µM	0.482 ± 0.02
KHOS-NP, 0.00017 µM	1.07 ± 0.027
KHOS-NP, 0.00051 µM	1.09 ± 0.026
KHOS-NP, 0.00152 µM	1.1 ± 0.012
KHOS-NP, 0.00457 µM	1.06 ± 0.022
KHOS-NP, 0.01372 µM	1.09 ± 0.036
KHOS-NP, 0.04115 µM	1.07 ± 0.033
KHOS-NP, 0.1235 µM	1.08 ± 0.014
KHOS-NP, 0.3704 µM	1.07 ± 0.031
KHOS-NP, 1.111 µM	1.04 ± 0.035
KHOS-NP, 3.333 µM	0.924 ± 0.016
KHOS-NP, 10 µM	0.586 ± 0.064
RD-ES, 0.00017 µM	0.916 ± 0.062
RD-ES, 0.00051 µM	0.92 ± 0.048
RD-ES, 0.00152 µM	0.953 ± 0.057
RD-ES, 0.00457 µM	0.95 ± 0.042
RD-ES, 0.01372 µM	0.938 ± 0.039
RD-ES, 0.04115 µM	0.949 ± 0.015
RD-ES, 0.1235 µM	0.958 ± 0.018
RD-ES, 0.3704 µM	0.895 ± 0.095
RD-ES, 1.111 µM	0.857 ± 0.042
RD-ES, 3.333 µM	0.616 ± 0.04
RD-ES, 10 µM	0.252 ± 0.022
SK-ES-1, 0.00017 µM	1.01 ± 0.039
SK-ES-1, 0.00051 µM	1.05 ± 0.024
SK-ES-1, 0.00152 µM	1.03 ± 0.011
SK-ES-1, 0.00457 µM	0.986 ± 0.023
SK-ES-1, 0.01372 µM	1.04 ± 0.04
SK-ES-1, 0.04115 µM	0.992 ± 0.021
SK-ES-1, 0.1235 µM	1 ± 0.068
SK-ES-1, 0.3704 µM	0.941 ± 0.036
SK-ES-1, 1.111 µM	0.885 ± 0.037
SK-ES-1, 3.333 µM	0.514 ± 0.028
SK-ES-1, 10 µM	0.128 ± 0.013
SK-LMS-1, 0.00017 µM	1.13 ± 0.049
SK-LMS-1, 0.00051 µM	1.13 ± 0.063
SK-LMS-1, 0.00152 µM	1.133 ± 0.0043
SK-LMS-1, 0.00457 µM	1.13 ± 0.028
SK-LMS-1, 0.01372 µM	1.09 ± 0.018
SK-LMS-1, 0.04115 µM	0.982 ± 0.032
SK-LMS-1, 0.1235 µM	0.599 ± 0.0083
SK-LMS-1, 0.3704 µM	0.379 ± 0.0053
SK-LMS-1, 1.111 µM	0.339 ± 0.016
SK-LMS-1, 3.333 µM	0.205 ± 0.011
SK-LMS-1, 10 µM	0.11 ± 0.036
SW684, 0.00017 µM	1.17 ± 0.034
SW684, 0.00051 µM	1.19 ± 0.024
SW684, 0.00152 µM	1.2 ± 0.035
SW684, 0.00457 µM	1.2 ± 0.047
SW684, 0.01372 µM	1.21 ± 0.032
SW684, 0.04115 µM	1.121 ± 0.01
SW684, 0.1235 µM	0.945 ± 0.044
SW684, 0.3704 µM	0.848 ± 0.029
SW684, 1.111 µM	0.852 ± 0.045
SW684, 3.333 µM	0.652 ± 0.046
SW684, 10 µM	0.38 ± 0.085
SW872, 0.00017 µM	1.08 ± 0.033
SW872, 0.00051 µM	1.1 ± 0.041
SW872, 0.00152 µM	1.08 ± 0.034
SW872, 0.00457 µM	1.11 ± 0.062
SW872, 0.01372 µM	1.06 ± 0.069
SW872, 0.04115 µM	1.05 ± 0.021
SW872, 0.1235 µM	1.06 ± 0.075
SW872, 0.3704 µM	1.01 ± 0.075
SW872, 1.111 µM	0.931 ± 0.029
SW872, 3.333 µM	0.626 ± 0.023
SW872, 10 µM	0.4 ± 0.035
SW982, 0.00017 µM	1.04 ± 0.032
SW982, 0.00051 µM	1.01 ± 0.043
SW982, 0.00152 µM	1.03 ± 0.025
SW982, 0.00457 µM	1.035 ± 0.0016
SW982, 0.01372 µM	1.036 ± 0.005
SW982, 0.04115 µM	1.07 ± 0.058
SW982, 0.1235 µM	1.05 ± 0.046
SW982, 0.3704 µM	1.03 ± 0.048
SW982, 1.111 µM	0.993 ± 0.027
SW982, 3.333 µM	0.598 ± 0.028
SW982, 10 µM	0.259 ± 0.064
VA-ES-BJ, 0.00017 µM	1.07 ± 0.019
VA-ES-BJ, 0.00051 µM	1.06 ± 0.016
VA-ES-BJ, 0.00152 µM	1.04 ± 0.015
VA-ES-BJ, 0.00457 µM	1 ± 0.017
VA-ES-BJ, 0.01372 µM	1.04 ± 0.034
VA-ES-BJ, 0.04115 µM	1.03 ± 0.039
VA-ES-BJ, 0.1235 µM	0.9802 ± 0.0071
VA-ES-BJ, 0.3704 µM	0.971 ± 0.027
VA-ES-BJ, 1.111 µM	0.91 ± 0.037
VA-ES-BJ, 3.333 µM	0.68 ± 0.035
VA-ES-BJ, 10 µM	0.266 ± 0.024

— the supplement of paper PMC10883282
